Laboratory results from patent publication US10047383B2, “Bioproduction of chemicals” (Cargill, Incorporated, priority 2013, dated 2018).

Legend:
E. coli strains = assay: Growth inhibition of E. coli strains grown in the presence of 3-HP; assay type: cell-based
H. elongata ACCase = assay: Salt effect on ACCase from the halophile; assay type: biochemical, Halomonas elongata; conditions: FIG. 4, compared to the E. coli ACCase
Procedure: Concentrations of products were measured using the Nanodrop spectophotometer.

SMILES | 3-HP level at which growth inhibition has been demonstrated (E. coli strains) [g/L] | effect of salt on H. elongata ACCase (H. elongata ACCase)
O=C(O)CCO [3-HP, 3-hydroxypropionic acid] | ≥ 20 | 
N.O=C(O)CCO [NH4-3-HP] |  | less affected
Cl.N [NH4Cl, reference compound] |  | less affected
